# Assay results taken from patent publication US12358886B2, “Heterocyclic compounds for use in the treatment of cancer” (Artios Pharma Limited, priority 2019, dated 2025).
# Target: Polθ protein (amino acids 2-2590) (Homo sapiens, UniProt O75417)
# Assay: Polθ full length enzyme potency assay (PicoGreen)
# Conditions: Polθ IC50 (nM), full length N-His, C-term FLAG tagged Polθ, PicoGreen fluorescence, 12 point concentration response
# Description: Polθ Full Length Enzyme Potency Assay
# PicoGreen assay was used to measure the ability of compounds to inhibit the activity of Polθ in vitro. […] DMSO concentration was maintained at 1% by back filling with DMSO solution. […] This was dispensed into each well of the compound plate using a VIAFLO 16 channel manual pipette (Integra) and pre-incubated at rt for 30 min. 3 μL of 2× working solution of dNTPs (40 μM) (dATP, dCTP, dGTP, dTTP; Sigma D6500, D4635, D4010, T0251) diluted in assay buffer was then added and the reaction incubated for 60 min at rt. The reaction was stopped by addition of 10 mM EDTA, 25 mM Tris pH 7.5 and 1:200 dilution of PicoGreen dye (Invitrogen P7581).
# Polθ protein (amino acids 2-2590), sequence (O75417 2-2590): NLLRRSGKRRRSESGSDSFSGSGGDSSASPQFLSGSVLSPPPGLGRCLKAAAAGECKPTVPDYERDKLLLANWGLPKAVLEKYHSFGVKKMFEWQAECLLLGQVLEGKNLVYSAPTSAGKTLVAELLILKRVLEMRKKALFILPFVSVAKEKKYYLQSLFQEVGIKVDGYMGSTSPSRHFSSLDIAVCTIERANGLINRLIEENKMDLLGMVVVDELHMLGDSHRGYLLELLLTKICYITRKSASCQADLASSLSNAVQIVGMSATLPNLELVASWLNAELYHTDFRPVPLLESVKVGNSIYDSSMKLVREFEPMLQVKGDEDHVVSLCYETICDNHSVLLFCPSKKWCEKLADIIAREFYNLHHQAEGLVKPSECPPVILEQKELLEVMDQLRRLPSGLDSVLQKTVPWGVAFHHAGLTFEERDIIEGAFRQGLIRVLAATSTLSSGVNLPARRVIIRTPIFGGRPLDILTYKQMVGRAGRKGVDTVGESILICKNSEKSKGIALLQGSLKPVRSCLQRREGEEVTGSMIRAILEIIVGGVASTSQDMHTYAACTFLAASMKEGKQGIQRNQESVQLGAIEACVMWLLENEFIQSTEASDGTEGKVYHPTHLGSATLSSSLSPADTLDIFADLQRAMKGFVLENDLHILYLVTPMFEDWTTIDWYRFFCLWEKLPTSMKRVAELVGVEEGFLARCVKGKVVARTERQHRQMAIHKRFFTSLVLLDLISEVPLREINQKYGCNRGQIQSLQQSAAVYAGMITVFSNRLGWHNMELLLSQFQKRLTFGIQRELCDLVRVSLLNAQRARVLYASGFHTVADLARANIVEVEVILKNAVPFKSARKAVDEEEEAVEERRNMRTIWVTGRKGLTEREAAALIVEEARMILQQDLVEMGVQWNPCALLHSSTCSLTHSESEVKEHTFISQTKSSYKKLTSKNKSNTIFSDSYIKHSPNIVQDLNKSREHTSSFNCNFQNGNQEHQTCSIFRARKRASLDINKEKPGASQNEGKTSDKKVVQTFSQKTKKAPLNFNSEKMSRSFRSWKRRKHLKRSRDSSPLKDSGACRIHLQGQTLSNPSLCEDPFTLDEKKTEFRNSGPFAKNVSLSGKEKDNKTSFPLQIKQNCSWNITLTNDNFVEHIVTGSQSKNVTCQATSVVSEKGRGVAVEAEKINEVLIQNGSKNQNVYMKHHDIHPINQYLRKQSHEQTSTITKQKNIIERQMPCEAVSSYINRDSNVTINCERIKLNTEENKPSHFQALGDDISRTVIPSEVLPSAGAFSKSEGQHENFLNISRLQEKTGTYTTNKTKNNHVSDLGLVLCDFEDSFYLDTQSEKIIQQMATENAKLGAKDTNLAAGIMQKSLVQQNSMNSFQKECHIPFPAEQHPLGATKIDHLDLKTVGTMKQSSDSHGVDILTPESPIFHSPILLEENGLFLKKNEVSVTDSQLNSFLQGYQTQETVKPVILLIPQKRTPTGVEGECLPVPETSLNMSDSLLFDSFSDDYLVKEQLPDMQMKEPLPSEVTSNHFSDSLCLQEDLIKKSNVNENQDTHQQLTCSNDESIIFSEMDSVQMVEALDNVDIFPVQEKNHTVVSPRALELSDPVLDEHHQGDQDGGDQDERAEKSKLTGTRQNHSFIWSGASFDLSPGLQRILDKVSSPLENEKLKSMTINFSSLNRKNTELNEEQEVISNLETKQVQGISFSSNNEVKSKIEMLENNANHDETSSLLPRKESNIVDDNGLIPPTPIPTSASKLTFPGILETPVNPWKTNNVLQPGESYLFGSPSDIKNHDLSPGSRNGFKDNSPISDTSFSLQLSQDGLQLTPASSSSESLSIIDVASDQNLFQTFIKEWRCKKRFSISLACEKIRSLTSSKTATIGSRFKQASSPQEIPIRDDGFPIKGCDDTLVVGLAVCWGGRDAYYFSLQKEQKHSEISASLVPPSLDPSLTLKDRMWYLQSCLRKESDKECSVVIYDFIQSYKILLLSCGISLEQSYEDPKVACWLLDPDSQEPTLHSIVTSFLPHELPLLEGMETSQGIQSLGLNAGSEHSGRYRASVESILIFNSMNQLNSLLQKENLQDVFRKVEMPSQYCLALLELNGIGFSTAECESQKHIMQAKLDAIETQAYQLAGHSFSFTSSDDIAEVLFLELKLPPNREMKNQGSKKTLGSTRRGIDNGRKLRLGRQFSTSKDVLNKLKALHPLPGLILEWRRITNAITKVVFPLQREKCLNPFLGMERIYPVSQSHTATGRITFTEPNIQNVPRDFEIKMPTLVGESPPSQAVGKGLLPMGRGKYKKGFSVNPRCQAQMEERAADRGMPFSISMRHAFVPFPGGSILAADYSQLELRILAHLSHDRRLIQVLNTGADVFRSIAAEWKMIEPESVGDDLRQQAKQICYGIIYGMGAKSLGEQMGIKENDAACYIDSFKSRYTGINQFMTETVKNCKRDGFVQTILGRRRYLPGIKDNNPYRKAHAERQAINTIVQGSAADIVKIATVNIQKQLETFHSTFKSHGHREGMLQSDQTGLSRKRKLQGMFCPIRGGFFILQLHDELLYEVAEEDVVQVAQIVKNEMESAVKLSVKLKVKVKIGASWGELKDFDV
row,IC50,SMILES
1,15 nM,"Cc1cc(C(F)(F)F)cc(N2C(=O)N(CCC(O)CO)C[C@H]2C(=O)N(C)c2ccc(F)c(Cl)c2)n1 (stereo partly drawn) [Example 232, (4S)—N-(3-Chloro-4-fluorophenyl)-1-(3,4-dihydroxybutyl)-N-methyl-3-(6-methyl-4-(trifluoromethyl)pyridin-2-yl)-2-oxoimidazolidine-4-carboxamide]"
2,87 nM,"Cc1cccc(N(C)C(=O)[C@@H]2C[C@H](O)CN2c2nc(C)cc(C)c2C#N)c1 [Example 9, (2S,4S)-1-(3-Cyano-4,6-dimethylpyridin-2-yl)-4-hydroxy-N-methyl-N-(m-tolyl)pyrrolidine-2-carboxamide]"
3,19 nM,"Cc1cc(C(F)(F)F)cc(N2C(=O)N(CCN3CC[C@@H](O)C3)C[C@H]2C(=O)N(C)c2ccc(F)c(Cl)c2)n1 [Example 197, (S)-N-(3-Chloro-4-fluorophenyl)-1-(2-((R)-3-hydroxypyrrolidin-1-yl)ethyl)-N-methyl-3-(6-methyl-4-(trifluoromethyl)pyridin-2-yl)-2-oxoimidazolidine-4-carboxamide]"
4,25 nM,"CCN(C(=O)[C@@H]1C[C@H](N2CCOCC2)CN1c1nc(C)cc(C)c1C#N)c1cccc(C)c1 [Example 42, (2S,4S)-1-(3-Cyano-4,6-dimethylpyridin-2-yl)-N-ethyl-4-morpholino-N-(m-tolyl)pyrrolidine-2-carboxamide]"
5,78 nM,"CCN(C(=O)[C@@H]1C[C@H](N2CCC(O)C2)CN1c1cc(C(F)(F)F)cc(C)n1)c1ccc(F)c(F)c1 (stereo partly drawn) [Example 129, (3S,5S)-N-(3,4-Difluorophenyl)-N-ethyl-3-hydroxy-1′-(6-methyl-4-(trifluoromethyl)pyridin-2-yl)-[1,3′-bipyrrolidine]-5′-carboxannide]"
6,11 nM,"[2H]C([2H])([2H])N(C(=O)[C@@H]1[C@H](O)[C@H](O)C(=O)N1c1cc(C(F)(F)F)cc(C)n1)c1ccc(F)c(Cl)c1 [Example 163, (2S,3S,4S)—N-(3-Chloro-4-fluorophenyl)-3,4-dihydroxy-N-(methyl-d3)-1-(6-methyl-4-(trifluoromethyl)pyridin-2-yl)-5-oxopyrrolidine-2-carboxamide]"
7,263 nM,"CCN(C(=O)[C@@H]1C[C@@H](N(C)C)CN1c1nc(C)cc(C)c1C#N)c1cccc(C)c1 [Example 41, (2S,4R)-1-(3-Cyano-4,6-dimethylpyridin-2-yl)-4-(dimethylamino)-N-ethyl-N-(m-tolyl)pyrrolidine-2-carboxamide]"
8,4 nM,"Cc1cc(C(F)(F)F)cc(N2C(=O)N(CCN3CCOCC3)C[C@H]2C(=O)N(C)c2ccc(F)c(Cl)c2F)n1 [Example 195, (S)-N-(3-Chloro-2,4difluorophenyl)-N-methyl-3-(6-methyl-4-(trifluoromethyl)pyridin-2-yl)-1-(2-morpholinoethyl)-2-oxoimidazolidine-4-carboxamide]"
9,16 nM,"Cc1cc(C(F)(F)F)cc(N2C(=O)OC[C@H]2C(=O)N(C)c2ccc(Cl)c(Cl)c2)n1 [Example 89, (S)-N-(3,4-Dichlorophenyl)-N-methyl-3-(6-methyl-4-(trifluoromethyl)-pyridin-2-yl)-2-oxooxazolidine-4-carboxamide]"
10,7 nM,"Cc1cc(C(F)(F)F)cc(N2C(=O)N(CCN3CCOCC3)C[C@H]2C(=O)N(C)c2ccc(F)c(Cl)c2)n1 [Example 194, (S)-N-(3-Chloro-4-fluorophenyl)-N-methyl-3-(6-methyl-4-(trifluoromethyl)pyridin-2-yl)-1-(2-morpholinoethyl)-2-oxoimidazolidine-4-carboxamide]"
11,1310 nM,"CCN(C(=O)[C@@H]1C[C@H](N(C)[C@H]2CN(C(=O)OC(C)(C)C)C[C@H]2O)CN1c1cc(C(F)(F)F)cc(C)n1)c1ccc(F)c(F)c1 [Example 144, tert-Butyl (3S,4R)-3-(((3S,5S)-5-((3,4-difluorophenyl)(ethyl)carbamoyl)-1-(6-methyl-4-(trifluoromethyl)pyridin-2-yl)pyrrolidin-3-yl)(methyl)amino)-4-hydroxypyrrolidine-1-carboxylate]"
